Key:
[1] = system: HePa1c1c7 cell line expressing pCYP1A1-luc stably; assay: Response test with the transformed cell line expressing the recombinant reporter gene (luciferase assay); format: cell-based, mouse; details: for luciferase activity over the treatment time: treatment time 4, 8 (or 24) hours
Procedure: The cell line stably expressing pCYP1A1-luc constructed in Example <1-2> was distributed in 60 mm culture dish at the density of 1×10^5 cells, followed by culture for 48 hours. Upon completion of the culture, the medium was replaced with DMEM supplemented with 0.5% charcoal-stripped FBS but not supplemented with phenol red, and indole-3-carbinol was treated thereto at the concentrations of 0, 0.01, 0.1, 1, 10, and 100 μM for 4, 8, or 24 hours. Then, the cells were collected, followed by luciferase assay.
The cell line stably expressing pCYP1A1-luc constructed in Example <1-2> was distributed in 60 mm culture dish at the density of 2×10^5 cells, followed by culture for 24 hours. Upon completion of the culture, the medium was replaced with DMEM supplemented with 0.5% charcoal-stipped FBS but not supplemented with phenol red, and 2,3,7,8-tetrachlorodibenzo-p-dioxin (TCDD) was treated thereto at the concentrations of 0, 0.1, 1, 10, 100, and 1000 pM for 4, or 8 hours. Then, the cells were collected, followed by luciferase assay.

[2] = mouse treated with TCDD; cited from earlier work

Row | Structure (SMILES) | luciferase activity compared with control not treated with TCDD ([1]; 10~1000 pM, treated for 4 or 8 hours) | luciferase activity over the treatment time [1] | ATP synthesis [2] | ubiquinone (CoQ) in the liver [2] | luciferase activity compared with non-treated control group ([1]; 0.001~10 μM, treated for 4, 8 or 24 hours) | luciferase activity increase ([1]; concentration of 100 μM, treated for 4, 8 or 24 hours)
1 | Clc1cc2c(cc1Cl)Oc1cc(Cl)c(Cl)cc1O2 [TCDD, 2,3,7,8-tetrachlorodibenzo-p-dioxin] | significantly increased | increased over the treatment time, which was not so significant | suppressed | reduced |  | 
2 | OCc1c[nH]c2ccccc12 [indol-3-carbinol, indole-3-carbinol] |  | significant difference over the time was not detected |  |  | increased dose-dependently | at least 3 times

— patent publication US10697027B2, “Biological detection method for dioxins in serum, and diagnostic use therefor in metabolic syndrome and related conditions” (priority 2010, dated 2020)
